Legend:
hFP = target: T1, hFP (Homo sapiens, UniProt P43088); experiment: FLIPR calcium signal, hFP; format: cell-based; details: Table 3, third part
T1 construct: expressed in transfected cells; host or cells: HEK-293(EBNA)
Experimental: HEK-293(EBNA) cells, stably expressing one type or subtype of recombinant human prostaglandin receptors (prostaglandin receptors expressed: hDP/Gqs5; hEP1; hEP2/Gqs5; hEP3A/Gqi5; hEP4/Gqs5; hFP; hIP; hTP), were cultured in 100 mm culture dishes in high-glucose DMEM medium containing 10% fetal bovine serum, 2 mM 1-glutamine, 250 μg/ml geneticin (G418) and 200 μg/ml hygromycin B as selection markers, and 100 units/ml penicillin G, 100 μg/ml streptomycin and 0.25 μg/ml amphotericin B. • (b) Calcium Signal Studies on the FLIPR™
Cells were seeded at a density of 5×10^4 cells per well in Biocoat® Poly-D-lysine-coated black-wall, clear-bottom 96-well plates (Becton-Dickinson) and allowed to attach overnight in an incubator at 37° C. Cells were then washed two times with HBSS-HEPES buffer (Hanks Balanced Salt Solution without bicarbonate and phenol red, 20 mM HEPES, pH 7.4) using a Denley Cellwash plate washer (Labsystems). After 45 minutes of dye-loading in the dark, using the calcium-sensitive dye Fluo-4 AM at a final concentration of 2 μM, plates were washed four times with HBSS-HEPES buffer to remove excess dye leaving 100 μl in each well. Plates were re-equilibrated to 37° C. for a few minutes.
Cells were excited with an Argon laser at 488 nm, and emission was measured through a 510-570 nm bandwidth emission filter (FLIPR™, Molecular Devices, Sunnyvale, Calif.). Drug solution was added in a 50 μl volume to each well to give the desired final concentration. The peak increase in fluorescence intensity was recorded for each well. On each plate, four wells each served as negative (HBSS-HEPES buffer) and positive controls (standard agonists: BW245C (hDP); PGE2 (hEP1; hEP2/Gqs5; hEP3A/Gqi5; hEP4/Gqs5); PGF2α (hFP); carbacyclin (hIP); U-46619 (hTP), depending on receptor). The peak fluorescence change in each drug-containing well was then expressed relative to the controls.
Compounds were tested in a high-throughput (HTS) or concentration-response (CoRe) format. […]

hTP = target: T2, hTP (Homo sapiens, UniProt P21731); experiment: FLIPR calcium signal, hTP; format: cell-based
T2 construct: expressed in transfected cells; host or cells: HEK-293(EBNA)
T2 sequence (P21731 1-343): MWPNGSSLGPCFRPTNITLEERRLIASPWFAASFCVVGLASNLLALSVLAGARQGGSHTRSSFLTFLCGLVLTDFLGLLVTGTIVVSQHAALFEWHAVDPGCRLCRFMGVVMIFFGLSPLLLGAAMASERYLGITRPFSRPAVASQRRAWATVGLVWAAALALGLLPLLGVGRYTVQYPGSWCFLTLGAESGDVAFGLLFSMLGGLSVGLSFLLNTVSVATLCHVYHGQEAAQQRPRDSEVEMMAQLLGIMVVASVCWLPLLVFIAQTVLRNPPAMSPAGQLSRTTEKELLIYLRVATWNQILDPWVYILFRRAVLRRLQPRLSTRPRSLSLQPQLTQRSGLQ
In short: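 HEK-293(EBNA) cells stably expressing the recombinant human receptor were loaded with 2 μM Fluo-4 AM for 45 min and read on FLIPR at 37° C in HBSS-HEPES pH 7.4. Peak fluorescence rise was expressed relative to buffer and standard agonist controls (BW245C, PGE2 or U-46619 by receptor); compounds were run 10^−5 to 10^−11 M in duplicate, n≧3.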

T1 sequence (P43088 whole entry): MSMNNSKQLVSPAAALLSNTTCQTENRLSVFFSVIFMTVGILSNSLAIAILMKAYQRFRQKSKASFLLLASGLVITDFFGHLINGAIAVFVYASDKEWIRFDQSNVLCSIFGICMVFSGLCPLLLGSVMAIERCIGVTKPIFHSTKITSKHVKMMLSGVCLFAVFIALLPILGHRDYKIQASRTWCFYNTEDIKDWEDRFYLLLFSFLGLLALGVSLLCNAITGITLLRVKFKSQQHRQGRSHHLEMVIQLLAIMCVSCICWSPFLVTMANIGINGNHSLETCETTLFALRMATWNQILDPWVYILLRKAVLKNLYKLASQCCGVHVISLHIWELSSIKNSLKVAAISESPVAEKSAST

CCCCCC(C)c1ccc([C@@H]2[C@@H](C/C=C\CCCC(=O)O)[C@H](C#N)C[C@H]2C)cc1 (stereo partly drawn)
Ca2+ Signal-EC50 (nM) FP (hFP): not active
Ca2+ Signal-EC50 (nM) TP (hTP; Table 3, third part): not active

CC(C)(C)c1ccc(N2C(=O)CC[C@@H]2COCc2ccc(C(=O)O)s2)cc1
EC50 (hTP; read-out: Other Receptors EC50 hTP): > 10 µM
